Source: patent publication US9212348B2, “Method for producing hematopoietic stem cells using pyrazole compounds” (NISSAN CHEMICAL INDUSTRIES, LTD., priority 2010, dated 2015)

How the values were obtained:
CD34+CD38- cells = test: Assay Example 3: expansion of CD34+CD38- cells using human cord blood-derived CD34+ cells (Table 22); type: cell-based; conditions: based on number of CD34+CD38- cells in absence of compound; 0.01 to 10 μg/mL compound; 100 ng/mL SCF and 20 ng/mL TPO; 7 days
Procedure: Human cord blood-derived CD34^+ cells purchased from the same supplier as in Assay Example 1 were plated on a 24-well plate (Corning) (10000 cells/1 mL/well). As the culture medium, StemSpan SFEM (StemCell Technologies) containing 100 ng/mL SCF (Wako Pure Chemical Industries) in terms of final concentration and 20 ng/mL TPO (PeproTech) in terms of final concentration was used, and Compounds Nos. 1-01 to 4-91 dissolved in dimethyl sulfoxide were added in an amount of 0.1% (v/v) to a final concentration of 0.01 to 10 μg/mL. As a negative control, the medium containing 0.1% (v/v) dimethyl sulfoxide was used.
After the cells were incubated in liquid culture at 37° C. for 7 days in a CO2 incubator (5% CO2), the number of viable cells was counted by trypan blue assay. The number of CD34^+CD38^− cells was calculated in the same manner as in Assay Example 1.

Question: Which Expansion efficiency (CD34+CD38- cells) does the source give for `CCCCCCc1ccc(-c2c(C(C)C)nn(C(C)(C)Cc3ccc(C)cc3)c2O)cc1` [Compound No. 3-07, 4-(4-hexylphenyl)-3-isopropyl-1-(2-methyl-1-p-tolylpropan-2-yl)-1H-pyrazol-5-ol] here?
Answer: A (A for expansion efficiencies of 4 or greater)

Question: With `CC(C)C1=NN(C(C)(C)Cc2ccc(Br)cc2)C(=O)C1` [Compound No. 3-12, 1-(1-(4-bromophenyl)-2-methylpropan-2-yl)-3-isopropyl-1H-pyrazol-5(4H)-one] as the compound, how does the Expansion efficiency (CD34+CD38- cells) read?
Answer: B (B for expansion efficiencies of at least 3 and less than 4)

Question: For `CC(C)(Cc1ccccc1)N1N=C(c2ccccc2)CC1=O` [Compound No. 3-16, 1-(2-methyl-1-phenylpropan-2-yl)-3-phenyl-1H-pyrazol-5(4H)-one], which Expansion efficiency (CD34+CD38- cells) is on record?
Answer: A (A for expansion efficiencies of 4 or greater)

Question: Which Expansion efficiency (CD34+CD38- cells) does the source give for `CC(C)C1=NN(C(C)(C)Cc2ccccc2)C(=O)C1Br` (stereo not shown) [Compound No. 3-47, 4-bromo-3-isopropyl-1-(2-methyl-1-phenylpropan-2-yl)-1H-pyrazol-5(4H)-one] here?
Answer: C (C for expansion efficiencies of at least 1.5 and less than 3)

Question: Which Expansion efficiency (CD34+CD38- cells) does the source give for `COC(=O)CC1=NN(C(C)(C)c2ccccc2)C(=O)C1` [Compound No. 4-01, methyl 2-(5-oxo-1-(2-phenylpropan-2-yl)-4,5-dihydro-1H-pyrazol-3-yl)acetate] here?
Answer: C (C for expansion efficiencies of at least 1.5 and less than 3)

Question: With `COC(=O)c1ccc(-c2c(C(C)C)nn(C(C)(C)Cc3ccccc3)c2O)cc1` [Compound No. 4-23, methyl 4-(5-hydroxy-3-isopropyl-1-(2-methyl-1-phenylpropan-2-yl)-1H-pyrazol-4-yl)benzoate] as the compound, how does the Expansion efficiency (CD34+CD38- cells) read?
Answer: A (A for expansion efficiencies of 4 or greater)

Question: Which results are given for `CCCCCCc1ccc(-c2c(C#N)nn(C(C)(C)Cc3ccc(C)cc3)c2O)cc1` [Compound No. 4-86, 4-(4-Hexylphenyl)-5-hydroxy-1-(2-methyl-1-(p-tolyl)propan-2-yl)-1H-pyrazole-3-carbonitrile]?
Answer: Expansion efficiency (CD34+CD38- cells): C (C for expansion efficiencies of at least 1.5 and less than 3); melting point: 140 to 142 °C

Question: Which Expansion efficiency (CD34+CD38- cells) does the source give for `CON=C(C)c1c(C(C)C)nn(C(C)(C)Cc2ccccc2)c1O` [Compound No. 4-89, 1-(5-Hydroxy-3-isopropyl-1-(2-methyl-1-phenylpropan-2-yl)-1H-pyrazol-4-yl)ethanone O-methyl oxime] here?
Answer: C (C for expansion efficiencies of at least 1.5 and less than 3)

Question: With `CCCCCCc1ccc(-c2cnn(C(C)(C)Cc3ccc(C)cc3)c2O)cc1` [Compound No. 4-90, 4-(4-Hexylphenyl)-1-(2-methyl-1-(p-tolyl)propan-2-yl)-1H-pyrazol-5-ol] as the compound, how does the melting point read?
Answer: 149 to 151 °C
